Experimental data published in patent publication US9492471B2, “Methods of treating a disease or disorder associated with Bruton'S Tyrosine Kinase” (Celgene Avilomics Research, Inc., priority 2013, dated 2016).
Like-named read-outs stand apart in the source and are kept apart here.

Key:
EPHB3 = biological target: T1, EPHB3 (Homo sapiens, UniProt P54753); test: HotSpot kinase profiling; type: biochemical
T1 construct: purchased Reaction Biology Corp
T1 sequence (P54753 34-998): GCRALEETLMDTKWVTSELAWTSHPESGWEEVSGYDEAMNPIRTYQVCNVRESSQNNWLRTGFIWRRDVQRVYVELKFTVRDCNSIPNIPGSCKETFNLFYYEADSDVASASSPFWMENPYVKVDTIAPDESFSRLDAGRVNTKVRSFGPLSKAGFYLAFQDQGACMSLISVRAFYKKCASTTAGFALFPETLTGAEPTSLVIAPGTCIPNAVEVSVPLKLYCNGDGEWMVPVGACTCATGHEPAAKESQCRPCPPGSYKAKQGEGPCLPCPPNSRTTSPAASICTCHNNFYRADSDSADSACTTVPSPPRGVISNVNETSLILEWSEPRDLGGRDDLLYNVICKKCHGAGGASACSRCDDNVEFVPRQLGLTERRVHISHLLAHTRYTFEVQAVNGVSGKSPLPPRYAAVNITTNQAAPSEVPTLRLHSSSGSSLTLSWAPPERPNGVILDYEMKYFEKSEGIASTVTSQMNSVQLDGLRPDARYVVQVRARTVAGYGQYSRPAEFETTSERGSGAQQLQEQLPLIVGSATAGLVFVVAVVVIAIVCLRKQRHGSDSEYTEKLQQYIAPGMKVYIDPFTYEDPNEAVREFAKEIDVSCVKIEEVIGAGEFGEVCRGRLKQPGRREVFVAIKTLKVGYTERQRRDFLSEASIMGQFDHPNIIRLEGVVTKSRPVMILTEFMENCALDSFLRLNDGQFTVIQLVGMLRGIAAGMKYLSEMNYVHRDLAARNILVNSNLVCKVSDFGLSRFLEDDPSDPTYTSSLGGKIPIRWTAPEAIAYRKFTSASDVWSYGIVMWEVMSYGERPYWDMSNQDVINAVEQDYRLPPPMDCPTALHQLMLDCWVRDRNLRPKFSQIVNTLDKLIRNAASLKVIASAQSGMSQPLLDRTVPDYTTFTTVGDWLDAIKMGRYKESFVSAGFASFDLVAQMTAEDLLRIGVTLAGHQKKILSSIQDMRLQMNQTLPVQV
How it was run: (§1)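 Radiometric kinase assay with P81 filter capture; each kinase was added to fresh substrate plus cofactors in reaction buffer and incubated 2 h at room temperature. Unreacted phosphate was washed off with 0.1% phosphoric acid before detection; percent inhibition is relative to DMSO control, averaged over replicates.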

EPHA6 = biological target: T2, EPHA6 (Homo sapiens, UniProt Q9UF33); test: HotSpot kinase profiling; type: biochemical
T2 construct: purchased Reaction Biology Corp
T2 sequence (Q9UF33 23-1036): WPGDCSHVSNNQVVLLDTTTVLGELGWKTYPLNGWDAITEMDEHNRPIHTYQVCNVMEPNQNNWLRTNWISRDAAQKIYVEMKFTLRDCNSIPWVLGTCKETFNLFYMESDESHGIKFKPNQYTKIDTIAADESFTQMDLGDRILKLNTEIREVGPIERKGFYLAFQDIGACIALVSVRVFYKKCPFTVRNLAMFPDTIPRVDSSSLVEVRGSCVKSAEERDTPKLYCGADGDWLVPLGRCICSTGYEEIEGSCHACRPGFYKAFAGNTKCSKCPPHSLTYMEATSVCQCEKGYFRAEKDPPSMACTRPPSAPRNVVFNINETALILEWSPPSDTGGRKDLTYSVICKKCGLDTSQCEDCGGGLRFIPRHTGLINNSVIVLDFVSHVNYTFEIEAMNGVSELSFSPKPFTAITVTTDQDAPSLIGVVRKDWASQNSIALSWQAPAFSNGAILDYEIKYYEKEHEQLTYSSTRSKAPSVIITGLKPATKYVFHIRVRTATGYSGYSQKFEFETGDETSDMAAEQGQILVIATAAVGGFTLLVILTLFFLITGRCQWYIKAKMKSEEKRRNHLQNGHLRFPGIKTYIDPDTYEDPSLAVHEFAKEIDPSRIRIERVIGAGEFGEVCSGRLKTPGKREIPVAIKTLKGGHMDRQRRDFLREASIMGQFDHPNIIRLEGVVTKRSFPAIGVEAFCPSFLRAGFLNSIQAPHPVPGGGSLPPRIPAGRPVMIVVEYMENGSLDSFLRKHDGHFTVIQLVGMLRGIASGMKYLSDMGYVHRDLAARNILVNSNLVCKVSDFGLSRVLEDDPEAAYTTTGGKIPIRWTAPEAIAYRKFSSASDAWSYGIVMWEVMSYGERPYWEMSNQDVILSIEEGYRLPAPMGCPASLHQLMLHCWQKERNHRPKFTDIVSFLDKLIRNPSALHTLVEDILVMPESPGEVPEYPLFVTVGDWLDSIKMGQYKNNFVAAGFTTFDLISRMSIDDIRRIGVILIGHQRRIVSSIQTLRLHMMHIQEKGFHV
How it was run: as §1

[1] = read-out: % Enzyme Activity (relative to DMSO controls) Run 1
[2] = read-out: % Enzyme Activity (relative to DMSO controls) Run 2

Q: `C=CC(=O)Nc1cccc(Nc2nc(Nc3ccc(OCCOC)c(F)c3)ncc2F)c1` [Compound 2] was tested. Which inhibition at 3 µM (EPHB3) did it give?
A: 1.31%

Q: What about the remaining activity at 3 µM (EPHB3; [1]) of the same compound?
A: 99.2%

Q: And the remaining activity at 3 µM (EPHB3; [2])?
A: 98.2%

Q: And the inhibition at 3 µM (EPHA6)?
A: 1.24%

Q: What about the remaining activity at 3 µM (EPHA6; [1]) of the same compound?
A: 95.5%

Q: What about the remaining activity at 3 µM (EPHA6; [2]) of the same compound?
A: 102%
